We go through seven molecules from patent publication US9000191B2, “Serotonin reuptake inhibitors” (Theravance Biopharma R&D IP, LLC, priority 2010, dated 2015).

Bounds are passed on as bounds.

For one data set, the target named is T1, hSERT (Homo sapiens, UniProt P31645).
T1 construct: expressed in transfected cells; host or cells: HEK293 (stably transfected, G418 selection)
In words: hSERT neurotransmitter uptake assay. In kind it is cell-based. As to conditions: serotonin reuptake inhibition, HEK293-hSERT cells; read-out: SERT pIC50 (converted). The method, then: Neurotransmitter uptake assays were used to measure inhibition of ^3H-serotonin (^3H-5-HT) uptake into cells expressing hSERT in order to determine the pIC50 values of test compounds at the transporter, similar to the procedures described in Tsuruda et al. (2010) Journal of Pharmacological and Toxicological Methods 61(2):192-204.
HEK293 cells stably-transfected with human recombinant SERT (HEK293-hSERT) were grown in DMEM medium supplemented with 10% dialyzed fetal bovine serum, 100 μg/ml penicillin, 100 μg/ml streptomycin, 2 mM L-glutamine, and 250 μg/ml of the aminoglycoside antibiotic G418. Cells were incubated in a 5% CO2, humidified incubator at 37° C.
The neurotransmitter uptake assay was performed in a 96-well assay plate in a total volume of 100 μL assay buffer containing HEK293-hSERT cells (7500-10,000 cells/well; plated ˜2 hours prior to assay initiation. Neurotransmitter Transporter Uptake Assay dye (0.5 μM), and eleven different concentrations of compound ranging from 10 μM to […] was used. Non-specific uptake was determined in the presence of indatraline (2.5 μM). The final assay buffer was 12.5 mM Tris-HCl, 5 mM HEPES, 3 mM NaHCO3, 0.3 mM KH2PO4, 0.25 mM Na2HPO4, 130 mM NaCl, 5 mM KCl, 1 mM CaCl2, 0.4 mM MgCl2, 0.3 mM MgSO4, 4 mM D-glucose, 0.025% BSA, 0.1 mM ascorbic acid, pH 7.4.
In pre-incubation studies, test compound was added to cells for 30 minutes at 37° C. prior to the addition of fluorescent substrate. For determination of inhibitory potency, a 10-30 minute endpoint substrate accumulation was determined by fluorescence spectroscopy using a Safire (Tecan Group Ltd., Minnendorf, Switzerland) and analysis was performed as described in Tsuruda et al., supra. For real-time measurements, compounds were either preincubated (as above) or mixed with substrate prior to addition, and kinetic measurements, relative fluorescence units (RFU integrated over 0.5 ms), were made using a cycle time of 1 min.

Data set [1] is described as follows: Peripheral selectivity (Assay 4): free plasma versus free brain exposure after oral dosing. It counts as in vivo. Particulars: fed male Sprague-Dawley rats, 0.5-24 hours post-dose, unbound fractions by equilibrium dialysis. How it is done: Fed male Sprague-Dawley rats (n=1/timepoint) were dosed orally with a test compound. Blood (via cardiocentesis), cerebrospinal fluid (CSF) (via cisternae magna) and brain were collected from an animal at 0.5, 1, 2, 4, 8 and 24 hours post-dose. Total plasma, CSF and brain concentrations were determined by LC-MS/MS. The pharmacokinetic parameters were assessed by non-compartmental methods using WinNonlin (Version 5.3, Pharsight, Mountain View, Calif.). The unbound fraction in plasma and brain was determined by equilibrium dialysis. Free plasma and free brain concentrations were determined by multiplying the total concentration in plasma or brain by its respective unbound fraction. CSF was assumed to be unbound, due to the absence of protein. Peripheral selectivity was assessed by comparing the unbound exposures (Cmax and AUC) in free plasma versus CSF and/or free brain.
A general note: In equilibrium dialysis only unbound substance equilibrates across the membrane.

T1 sequence (P31645 whole entry): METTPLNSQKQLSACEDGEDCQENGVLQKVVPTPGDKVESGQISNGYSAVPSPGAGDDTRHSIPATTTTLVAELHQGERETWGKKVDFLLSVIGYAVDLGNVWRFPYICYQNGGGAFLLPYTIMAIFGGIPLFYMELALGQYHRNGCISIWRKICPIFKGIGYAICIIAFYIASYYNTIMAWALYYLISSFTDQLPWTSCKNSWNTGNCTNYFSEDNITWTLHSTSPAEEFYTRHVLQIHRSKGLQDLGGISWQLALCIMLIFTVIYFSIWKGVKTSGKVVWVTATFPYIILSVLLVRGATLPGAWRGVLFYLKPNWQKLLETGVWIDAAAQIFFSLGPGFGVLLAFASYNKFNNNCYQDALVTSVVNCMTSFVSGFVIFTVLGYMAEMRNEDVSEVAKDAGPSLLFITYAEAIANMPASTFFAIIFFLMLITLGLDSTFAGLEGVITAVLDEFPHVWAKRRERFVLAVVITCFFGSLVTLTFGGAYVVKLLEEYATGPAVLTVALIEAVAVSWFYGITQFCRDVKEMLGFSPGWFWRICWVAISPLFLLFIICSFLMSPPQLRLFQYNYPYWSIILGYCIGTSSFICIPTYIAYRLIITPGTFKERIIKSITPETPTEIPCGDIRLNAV

For `CS(=O)(=O)C[C@@H](Oc1ccc(C(F)(F)F)cc1)[C@H]1CCNC1` [Example 1, (S)-3-[(S)-2-Methanesulfonyl-1-(4-trifluoromethylphenoxy)ethyl]pyrrolidine], the IC50 at hSERT is at most 10 nM. Moreover, in data set [1], the “Free plasma AUC/Free brain AUC” value is reported as above 70.

On to `CS(=O)(=O)C[C@@H](Oc1ccc([N+](=O)[O-])cc1)[C@@H]1CCNC1` [Example 2-7, (R)-3-[(S)-2-Methanesulfonyl-1-(4-nitro-phenoxy)ethyl]pyrrolidine], for which the IC50 at hSERT is at most 100 nM. The “Free plasma AUC/Free brain AUC” value in data set [1] was above 20.

Consider `CS(=O)(=O)C[C@@H](Oc1ccc(C(F)(F)F)cn1)[C@@H]1CCNC1` [Example 3], for which the IC50 on hSERT is at most 100 nM. In data set [1], the “Free plasma AUC/Free brain AUC” value is reported as above 20.

Take `COC(=O)CS(=O)(=O)C[C@@H](Oc1ccc(C(F)(F)F)cc1)[C@H]1CCNC1` [Example 2-16, [(S)-(S)-Pyrrolidin-3-yl-(4-trifluoromethylphenoxy)ethanesulfonyl]acetic acid methyl ester]: the IC50 on hSERT is at most 10 nM.

For `CS(=O)(=O)C[C@H](Oc1ccc(C(F)(F)F)c(C#N)c1)[C@H]1CCNC1` (stereo in doubt) [Example 2-21, 5-((S)-2-Methanesulfonyl-1-(R)-pyrrolidin-3-ylethoxy)-2-trifluoromethyl-benzonitrile], at hSERT, the IC50 is at most 10 nM.

As to `CS(=O)(=O)C[C@H](Oc1ccc([N+](=O)[O-])cc1)[C@@H]1CCNC1` [Example 2-8, (R)-3-[(R)-2-Methanesulfonyl-1-(4-nitro-phenoxy)ethyl]pyrrolidine], the IC50 at hSERT is at most 100 nM. Further, the “Free plasma AUC/Free brain AUC” value in data set [1] was above 10.

Regarding `O=S(=O)(CCC(Oc1ccc(C(F)(F)F)cc1)[C@H]1CCNC1)c1ccccc1` (stereo partly drawn) [Example 7, (S)-3-[3-Benzenesulfonyl-1-(4-trifluoromethylphenoxy)propyl]pyrrolidine], the IC50 on hSERT was at most 10 nM.
